According to US10450297B2, “Sulfonyl amide derivatives for the treatment of abnormal cell growth” (Pfizer, Inc., priority 2007, dated 2019):

Target: FAK kinase (catalytic construct FAK(410-689)) (Homo sapiens (Human), UniProt Q05397)
Assay: FAKcd kinase ELISA (inhibition of poly-glu-tyr phosphorylation by FAK(410-689))
Assay type: biochemical
Details: 50 μM final ATP
Procedure: A. In-Vitro Activity of FAK:
The assay protocol has three parts:
3. […] 4. […] 5. […] 6. […] 7. […] 9. […] 10. […] 12. […] 13. […] 14. Aliquot the FAKcd protein and store frozen at −80° C. II. FAK Activation 1. […] At t120 (t=120 minutes), add 10 μl of 150 mM ATP. […] Add 180 μl aliquots of the desalted material to NiNTA spin column and incubate on spin column 4. […] FAKcd Kinase ELISA 1. Coat 96-well Nunc MaxiSorp plates with poly-glu-tyr (pGT) at […]: Prepare 10 μg/ml of pGT in PBS and aliquot 100 μl/well. Incubate the plates at 37° C. overnight, aspirate the supernatant, wash the plates 3 times with Wash Buffer, and flick to dry before storing at 4° C. 2. Prepare compound stock solutions of 2.5 mM in 100% DMSO. The stocks are subsequently diluted to 60× of the final concentration in 100% DMSO, and diluted 1:5 in Kinase Phosphorylation Buffer. 3. […] Add 80 μl to each well for a final ATP concentration of 50 μM. 4. […] 5. Dilute on ice, FAKcd protein to 1:1000 in Kinase Phosphorylation Buffer. Dispense 30 μl per well. 6. Note: Linearity and the appropriate dilution must be pre-determined for each batch of protein. The enzyme concentration selected should be such that quantitation of the assay signal will be approximately 0.8-1.0 at OD450, and in the linear range of the reaction rate. 7. Prepare both a No ATP control (noise) and a No Compound Control (Signal): 8. (Noise) One blank row of wells receives 10 μl of 1:5 diluted compounds in DMSO, 80 μl of Phosphorylation buffer (minus ATP), and 30 μl FAKcd solution. 9. […] 10. Incubate reaction at room temperature for 15 minutes with gentle shaking on a plate shaker. 11. Terminate the reaction by aspirating off the reaction mixture and washing 3 times with wash buffer. 12. Dilute phospho-tyrosine HRP-conjugated (pY20HRP) antibody to 0.250 μg/ml (1:1000 of Stock) in blocking buffer. Dispense 100 μl per well, and incubate with shaking for 30 minutes at 25°. 13. Aspirate the supernatant and wash the plate 3 times with wash buffer. 14. Add 100 μl per well of room temperature TMB solution to initiate color development. Color development is terminated after approximately 15-30 sec. by the addition of 100 μl of 0.09M H2SO4 per well. 15. The signal is quantitated by measurement of absorbance at 450 nm on the BioRad ricroplate reader or a microplate reader capable of reading at OD450. 16. Inhibition of tyrosine kinase activity would result in a reduced absorbance signal. […] The values are reported as IC50s, μM concentration. FAK Inducible cell-based ELISA: Final Protocol Materials: […]

Chain of FAK kinase (catalytic construct FAK(410-689)) (Q05397 410-689): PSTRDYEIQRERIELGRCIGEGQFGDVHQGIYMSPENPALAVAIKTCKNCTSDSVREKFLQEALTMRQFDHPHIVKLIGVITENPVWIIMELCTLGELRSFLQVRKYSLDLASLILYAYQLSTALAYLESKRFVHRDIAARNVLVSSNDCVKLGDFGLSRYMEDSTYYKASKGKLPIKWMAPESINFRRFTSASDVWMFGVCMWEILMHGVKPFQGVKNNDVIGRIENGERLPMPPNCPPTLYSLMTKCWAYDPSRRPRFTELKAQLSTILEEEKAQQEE

Row | SMILES | IC50 [nM]
1 | CN(c1ncccc1CNc1nc(NC2CCN(S(C)(=O)=O)CC2)ncc1C(F)(F)F)S(C)(=O)=O [Compound 36, N-methyl-N-[3-({[2-{[1-(methylsulfonyl)piperidin-4-yl]amino}-5-(trifluoromethyl)pyrimidin-4-yl]amino}methyl)pyridin-2-yl]methanesulfonamide] | 188
2 | CN(c1ncccc1CNc1nc(NC2CCC2)ncc1C(F)(F)F)S(C)(=O)=O [Compound 38, N-[3-({[2-(cyclobutylamino)-5-(trifluoromethyl)pyrimidin-4-yl]amino}methyl)pyrldin-2-yl]-N-methylmethane-sulfonamide] | 497
3 | CC(=O)N1CC[C@@H](Nc2ncc(C(F)(F)F)c(NCc3cccnc3N(C)S(C)(=O)=O)n2)C1 [Compound 39, N-[3-({[2-{[(3R)-1-acetylpyrrolidin-3-yl]amino}-5-(trifluoromethyl)pyrimidin-4-yl]amino}methyl)pyridin-2-yl]-N-methylmethane-sulfonamide] | 1000
4 | COC(=O)c1ccc(Nc2ncc(C(F)(F)F)c(NCc3cccnc3N(C)S(C)(=O)=O)n2)cc1 [Compound 40, methyl 4-({4-[({2-[methyl(methylsulfonyl)amino]pyridin-3-yl}methyl)amino]-5-(trifluoromethyl)pyrimidin-2-yl}amino)benzoate] | 0.59
5 | CN(c1ncccc1CNc1nc(Nc2ccc(C(=O)O)cc2)ncc1C(F)(F)F)S(C)(=O)=O [Compound 42, 4-({4-[({2-[methyl(methylsulfonyl)amino]pyridin-3-yl}methyl)amino]-5-(trifluoromethyl)pyrimidin-2-yl}amino)benzoic acid] | 188
6 | CN(c1ncccc1CNc1nc(Nc2ccc(C(=O)O)cc2)ncc1C(F)(F)F)S(C)(=O)=O [Compound 43, 4-({4-[({2-[methyl(methylsulfonyl)amino)pyridin-3-yl}methyl)amino]-5-(trifluoromethyl)pyrimidin-2-yl}amino)benzoic acid] | 0.6
7 | CN(c1ncccc1CNc1nc(NC2CCNCC2)ncc1C(F)(F)F)S(C)(=O)=O [Compound 44, N-methyl-N-[3-({[2-(piperidin-4-ylamino)-5-(trifluoromethyl)pyrimidin-4-yl]amino}methyl)pyridin-2-yl]methanesulfonamide] | 188
8 | CC(=O)N1CCC(Nc2ncc(C(F)(F)F)c(NCc3cccnc3N(C)S(C)(=O)=O)n2)CC1 [Compound 45, N-{3-[({2-[(1-acetylpiperidin-4-yl)amino]-5-(trifluoromethyl)pyrimidin-4-yl}amino)methyl)pyridin-2-yl}-N-methylmethane-sulfonamide] | 188
9 | CS(=O)(=O)c1cccc(CNc2nc(Nc3ccccc3)ncc2C(F)(F)F)c1 [Compound 46, N-4-(3-(methylsulfonyl)benzyl]-N-2-phenyl-5-(trifluoromethyl)pyrimidine-2,4-diamine] | 1.02
10 | COc1cc(C(N)=O)ccc1Nc1ncc(C(F)(F)F)c(NCc2cccnc2N(C)S(C)(=O)=O)n1 [Compound 48, 3-methoxy-4-({4-[({2-[methyl(methylsuffonyl)amino]pyridin-3-yl}methyl)amino]-5-(trifluoromethyl)pyrimidin-2-yl}amino)benzamide] | 0.59
11 | COc1cc(C(N)=O)ccc1Nc1ncc(C(F)(F)F)c(NCc2ccc(C)nc2N(C)S(C)(=O)=O)n1 [Compound 49, 3-methoxy-4-({4-[({6-methyl-2-[methyl(methylsulfonyl)-amino]pyridin-3-yl}methyl)amino]-5-(trifluoromethyl)pyrirnidin-2-yl}amino)benzamide] | 0.59
12 | Cc1ccc(CNc2nc(Nc3ccccc3)ncc2C(F)(F)F)c(N(C)S(C)(=O)=O)n1 [Compound 51, N-[3-({[2-anilino-5-(trifluoromethyl)pyrimidin-4-yl]amino}methyl)-6-methylpyridin-2-yl]-N-methylmethanesulfonamide] | 0.59
13 | CNC(=O)c1ccc(Nc2ncc(C(F)(F)F)c(NCc3cccc(S(C)(=O)=O)c3)n2)cc1 [Compound 52, N-methyl-4-{[4-{[3-(methylsulfonyl)benzyl]amino}-5-(trifluoromethyl)pyrimidin-2-yl]amino}benzamide] | 1.95
14 | COCC(=O)N1CCC(Nc2ncc(C(F)(F)F)c(NCc3cccnc3N(C)S(C)(=O)=O)n2)CC1 [Compound 55, N-[3-({[2-{[1-(methoxyacetyl)piperidin-4-yl]amino}-5-(trifluoromethyl)pyrimidin-4-yl]amino}methyl)pyridin-2-yl]-N-methylmethane-sulfonamide] | 188
15 | CC(=O)NCC(=O)N1CCC(Nc2ncc(C(F)(F)F)c(NCc3cccnc3N(C)S(C)(=O)=O)n2)CC1 [Compound 56, N-{2-[4-({4-[({2-[methyl(methylsulfonyl)amino]pyridin-3-yl}methyl)amino]-5-(trifluoromethyl)pyrimidin-2-yl}amino)piperidin-1-yl]-2-oxoethyl}acetamide] | 188
16 | CN(c1ncccc1CNc1nc(NC2CCN(C(N)=O)CC2)ncc1C(F)(F)F)S(C)(=O)=O [Compound 57, 4-({4-[({2-[methyl(methylsulfonyl)amino]pyridin-3-yl}methyl)amino]-5-(trifluoromethyl)pyrimidin-2-yl}amino)piperidine-1-carboxamide] | 188
17 | CN(c1ncccc1CNc1nc(NC2CCN(C(=O)CC(F)(F)F)CC2)ncc1C(F)(F)F)S(C)(=O)=O [Compound 58, N-methyl-N-[3-({[5-(trifluoromethyl)-2-{[1-(3,3,3-trifluoropropanoyl)piperidin-4-yl]amino}pyrimidin-4-yl]amino}methyl)pyridin-2-yl]methanesulfonamide] | 165
18 | CN(c1ncccc1CNc1nc(Nc2ccc(C(N)=O)cn2)ncc1C(F)(F)F)S(C)(=O)=O [Compound 59, 6-({4-[({2-[methyl(methylsulfonyl)amino]pyridin-3-yl}methyl)amino]-5-(trifluoromethyl)pyrimidin-2-yl}amino)nicotinamide] | 8.93
19 | CCOC(=O)[C@H]1CC[C@@H](Nc2ncc(C(F)(F)F)c(NCc3cccnc3N(C)S(C)(=O)=O)n2)CC1 [Compound 60, ethyl cis-4-({4-(({2-[methyl(methylsulfonyl)amino]pyridin-3-yl}methyl)amino]-5-(trifluoromethyl)pyrimidin-2-yl}amino)cyclohexanecarboxylate] | 188
20 | CN(c1ncccc1CNc1nc(Nc2ccc(S(=O)(=O)Nc3ccccn3)cc2)ncc1C(F)(F)F)S(C)(=O)=O [Compound 61, 4-({4-[({2-[methyl(methylsulfonyl)amino]pyridin-3-yl}methyl)amino]-5-(trifluoromethyl)pyrimidin-2-yl}amino)-N-pyridin-2-ylbenzenesulfonamide] | 1.02
21 | Cc1ccc(CNc2nc(Nc3ccccc3)ncc2C(F)(F)F)c(NS(C)(=O)=O)c1 [Compound 62, N-[2-({[2-anilino-5-(trifluoromethyl)pyrimidin-4-yl]amino}methyl)-5-methylphenyl]methanesulfonamide] | 10.3
22 | Cc1ccc(N(C)S(C)(=O)=O)cc1CNc1nc(Nc2ccccc2)ncc1C(F)(F)F [Compound 63, N-[3-({[2-anilino-5-(trifluoromethyl)pyrimidin-4-yl]amino}methyl)-4-methylphenyl]-N-methylmethanesulfonamide] | 0.6
23 | Cc1cccc(CNc2nc(Nc3ccccc3)ncc2C(F)(F)F)c1N(C)S(C)(=O)=O [Compound 64, N-[2-({[2-anilino-5-(trifluoromethyl)pyrimidin-4-yl)amino}methyl)-6-methylphenyl]-N-methylmethanesulfonamide] | 0.6
24 | Cc1ccc(CNc2nc(Nc3ccccc3)ncc2C(F)(F)F)c(N(C)S(C)(=O)=O)c1 [Compound 65, N-[2-({[2-anilino-5-(trifluoromethyl)pyrimidin-4-yl]amino}methyl)-5-methylphenyl]-N-methylmethanesulfonamide] | 0.6
25 | Cc1ccc(N(C)S(C)(=O)=O)c(CNc2nc(Nc3ccccc3)ncc2C(F)(F)F)c1 [Compound 66, N-[2-({[2-anilino-5-(trifluoromethyl)pyrimidin-4-yl]amino}methyl)-4-methylphenyl]-N-methylmethanesulfonamide] | 0.6
